Test results from patent publication US6737383B1, “Herbicidal oxadiazolidines” (priority 1999, dated 2004).

Assays:
[1] = test system: rice; assay: Test B flood test rice; type: in vivo, Oryza sativa
Summary of the method: (§1)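 Flood test on plants grown to the 2-leaf stage; treated plants kept in greenhouse twelve to sixteen days, then visually rated against controls on a 0 (no effect) to 10 (complete control) scale.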

[2] = test system: bamyardgrass; assay: Test B flood test barnyardgrass; type: in vivo, Echinochloa crus-galli
Summary of the method: as §1

[3] = test system: crabgrass; assay: Test B pre/postemergence crabgrass; type: in vivo, Digitaria sanguinalis; conditions: for Plant response rating, Crabgrass: scale of 0 to 10 where 0 is no effect and 10 is complete control
Summary of the method: (§2)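 Response is a visual 0-to-10 score relative to untreated plants, where 0 means no effect and 10 means complete control, taken twelve to sixteen days after application. Treatments went onto soil at planting and onto foliage of 1- to 4-leaf plants, using a surfactant-containing non-phytotoxic solvent.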

[4] = test system: wild oat; assay: Test B pre/postemergence wild oat; type: in vivo, Avena fatua; conditions: for Plant response rating, Wild oats: scale of 0 to 10 where 0 is no effect and 10 is complete control
Summary of the method: as §2

[5] = test system: giant foxtail; assay: Test B pre/postemergence giant foxtail; type: in vivo, Setaria faberii; conditions: for Plant response rating, Giant foxtail: scale of 0 to 10 where 0 is no effect and 10 is complete control
Summary of the method: as §2

[6] = test system: smallflower flatsedge; assay: Test B flood test smallflower flatsedge; type: in vivo, Cyperus difformis
Summary of the method: as §1

[7] = test system: bedstraw; assay: Test B pre/postemergence bedstraw; type: in vivo, Galium aparine; conditions: Postemergence, Rate 31 g/ha; visual rating, scale 0 to 10 (0 no effect, 10 complete control)
Summary of the method: as §2

[8] = test system: morningglory; assay: Test B pre/postemergence morningglory; type: in vivo, Ipomoea hederacea; conditions: for Plant response rating, Morningglory: scale of 0 to 10 where 0 is no effect and 10 is complete control
Summary of the method: as §2

[9] = test system: duck salad; assay: Test B flood test duck salad; type: in vivo, Heteranthera limosa
Summary of the method: as §1

[10] = test system: soybean; assay: Test B pre/postemergence soybean; type: in vivo, Glycine max; conditions: for Plant response rating, Soybean: scale of 0 to 10 where 0 is no effect and 10 is complete control
Summary of the method: as §2

[11] = test system: blackgrass; assay: Test B pre/postemergence blackgrass; type: in vivo, Alopecurus myosuroides; conditions: for Plant response rating, Blackgrass: scale of 0 to 10 where 0 is no effect and 10 is complete control
Summary of the method: as §2

[12] = test system: wheat; assay: Test B pre/postemergence wheat; type: in vivo, Triticum aestivum; conditions: for Plant response rating, Wheat: scale of 0 to 10 where 0 is no effect and 10 is complete control
Summary of the method: as §2

[13] = test system: cocklebur; assay: Test B pre/postemergence cocklebur; type: in vivo, Xanthium strumarium; conditions: for Plant response rating, Cocklebur: scale of 0 to 10 where 0 is no effect and 10 is complete control
Summary of the method: as §2

[14] = test system: velvetleaf; assay: Test B pre/postemergence velvetleaf; type: in vivo, Abutilon theophrasti; conditions: for Plant response rating, Velvetleaf: scale of 0 to 10 where 0 is no effect and 10 is complete control
Summary of the method: as §2

[15] = test system: corn; assay: Test B pre/postemergence corn; type: in vivo, Zea mays; conditions: for Plant response rating, Corn: scale of 0 to 10 where 0 is no effect and 10 is complete control
Summary of the method: as §2

[16] = test system: surinam grass; assay: Test B pre/postemergence surinam grass; type: in vivo, Brachiaria decumbens; conditions: for Plant response rating, B. signalgrass: scale of 0 to 10 where 0 is no effect and 10 is complete control
Summary of the method: as §2

[17] = test system: purple nutsedge; assay: Test B pre/postemergence purple nutsedge; type: in vivo, Cyperus rotundus; conditions: for Plant response rating, Nutsedge: scale of 0 to 10 where 0 is no effect and 10 is complete control
Summary of the method: as §2

[18] = Rate 31 g/ha, Pre-emergence section (flood test species), scale 0 to 10
[19] = Rate 62 g/ha, flood test species, Pre-emergence, visual evaluation after twelve to sixteen days
[20] = Rate 125 g/ha, under heading Pre-emergence, flood test species, visual evaluation after twelve to sixteen days
[21] = Rate 250 g/ha, Pre-emergence (flood test species), scale 0 to 10, 0 is no effect, 10 is complete control
[22] = Postemergence, Rate 31 g/ha, visual rating, scale 0 to 10 (0 no effect, 10 complete control)
[23] = Postemergence, Rate 250 g/ha, scale 0 to 10
[24] = Preemergence, Rate 31 g/ha, visual rating, scale 0 to 10 (0 no effect, 10 complete control)
[25] = Preemergence, Rate 250 g/ha, scale 0 to 10, 0 is no effect, 10 is complete control
[26] = Rate 62 g/ha, Postemergence, scale 0 to 10 (0 no effect, 10 complete control)
[27] = Rate 125 g/ha, Postemergence, scale 0 to 10, 0 is no effect, 10 is complete control

CC(C)N(C(=O)n1oc(=O)n(CC2=NOCCC2)c1=O)c1ccc(Cl)cc1 [Compound 450]
2: Plant response rating, Crabgrass ([3]; Preemergence, Rate 62 g/ha) | Crabgrass plant response rating [3, 27] | Plant response rating, Giant foxtail ([5]; Preemergence, Rate 62 g/ha) | Giant foxtail plant response rating [5, 26] | Blackgrass plant response rating [11, 23] | Plant response rating, Blackgrass ([11]; Preemergence, Rate 125 g/ha) | Velvetleaf plant response rating [14, 23]
8: Crabgrass plant response rating [3, 25] | Plant response rating, Giant foxtail ([5]; Preemergence, Rate 125 g/ha)
4: Crabgrass plant response rating [3, 23] | Blackgrass plant response rating [11, 25]
5: Giant foxtail plant response rating [5, 27]
1: Morningglory plant response rating [8, 23] | Soybean plant response rating [10, 23] | Soybean plant response rating [10, 26] | Soybean plant response rating [10, 27] | Plant response rating, B. signalgrass ([16]; Preemergence, Rate 125 g/ha)
3: Soybean plant response rating [10, 25] | B. signalgrass plant response rating [16, 25]
0: Rice plant response rating [1, 18] | Plant response rating, Rice (0 to 10 scale, 0 is no effect, 10 is complete control) [1, 19] | Rice plant response rating (0 to 10 scale, 0 is no effect, 10 is complete control) [1, 20] | Rice plant response rating [1, 21] | Barnyardgrass plant response rating [2, 18] | Plant response rating, Barnyardgrass (0 to 10 scale, 0 is no effect, 10 is complete control) [2, 19] | Barnyardgrass plant response rating (0 to 10 scale, 0 is no effect, 10 is complete control) [2, 20] | Barnyardgrass plant response rating [2, 21] | Crabgrass plant response rating [3, 22] | Crabgrass plant response rating [3, 24] | Crabgrass plant response rating [3, 26] | Wild oats plant response rating [4, 22] | Wild oats plant response rating [4, 23] | Plant response rating, Wild oats ([4]; Preemergence, Rate 62 g/ha) | Plant response rating, Wild oats ([4]; Preemergence, Rate 125 g/ha) | Wild oats plant response rating [4, 25] | Wild oats plant response rating [4, 26] | Wild oats plant response rating [4, 27] | Giant foxtail plant response rating [5, 22] | Giant foxtail plant response rating [5, 24] | S. Flatsedge plant response rating [6, 18] | Plant response rating, S. Flatsedge (0 to 10 scale, 0 is no effect, 10 is complete control) [6, 19] | S. Flatsedge plant response rating (0 to 10 scale, 0 is no effect, 10 is complete control) [6, 20] | S. Flatsedge plant response rating [6, 21] | Bedstraw plant response rating [7] | Morningglory plant response rating [8, 22] | Plant response rating, Morningglory ([8]; Preemergence, Rate 62 g/ha) | Plant response rating, Morningglory ([8]; Preemergence, Rate 125 g/ha) | Morningglory plant response rating [8, 25] | Morningglory plant response rating [8, 26] | Morningglory plant response rating [8, 27] | Ducksalad plant response rating [9, 18] | Plant response rating, Ducksalad (0 to 10 scale, 0 is no effect, 10 is complete control) [9, 19] | Ducksalad plant response rating (0 to 10 scale, 0 is no effect, 10 is complete control) [9, 20] | Ducksalad plant response rating [9, 21] | Soybean plant response rating [10, 22] | Plant response rating, Soybean ([10]; Preemergence, Rate 62 g/ha) | Plant response rating, Soybean ([10]; Preemergence, Rate 125 g/ha) | Blackgrass plant response rating [11, 22] | Blackgrass plant response rating [11, 24] | Plant response rating, Blackgrass ([11]; Preemergence, Rate 62 g/ha) | Blackgrass plant response rating [11, 26] | Blackgrass plant response rating [11, 27] | Wheat plant response rating [12, 22] | Wheat plant response rating [12, 23] | Plant response rating, Wheat ([12]; Preemergence, Rate 62 g/ha) | Plant response rating, Wheat ([12]; Preemergence, Rate 125 g/ha) | Wheat plant response rating [12, 25] | Wheat plant response rating [12, 26] | Wheat plant response rating [12, 27] | Cocklebur plant response rating [13, 22] | Cocklebur plant response rating [13, 23] | Cocklebur plant response rating [13, 24] | Plant response rating, Cocklebur ([13]; Preemergence, Rate 62 g/ha) | Plant response rating, Cocklebur ([13]; Preemergence, Rate 125 g/ha) | Cocklebur plant response rating [13, 25] | Cocklebur plant response rating [13, 26] | Cocklebur plant response rating [13, 27] | Velvetleaf plant response rating [14, 22] | Plant response rating, Velvetleaf ([14]; Preemergence, Rate 62 g/ha) | Plant response rating, Velvetleaf ([14]; Preemergence, Rate 125 g/ha) | Velvetleaf plant response rating [14, 25] | Velvetleaf plant response rating [14, 26] | Corn plant response rating [15, 22] | Corn plant response rating [15, 23] | Corn plant response rating [15, 24] | Plant response rating, Corn ([15]; Preemergence, Rate 62 g/ha) | Plant response rating, Corn ([15]; Preemergence, Rate 125 g/ha) | Corn plant response rating [15, 25] | Corn plant response rating [15, 26] | Corn plant response rating [15, 27] | B. signalgrass plant response rating [16, 22] | B. signalgrass plant response rating ([16]; Postemergence, Rate 250 g/ha, scale 0 to 10, 0 no effect, 10 complete control) | B. signalgrass plant response rating [16, 24] | Plant response rating, B. signalgrass ([16]; Preemergence, Rate 62 g/ha) | B. signalgrass plant response rating [16, 26] | B. signalgrass plant response rating [16, 27] | Nutsedge plant response rating [17, 22] | Nutsedge plant response rating [17, 23] | Plant response rating, Nutsedge ([17]; Preemergence, Rate 62 g/ha) | Plant response rating, Nutsedge ([17]; Preemergence, Rate 125 g/ha) | Nutsedge plant response rating [17, 25] | Nutsedge plant response rating [17, 26] | Nutsedge plant response rating [17, 27]
9: Giant foxtail plant response rating [5, 25]
Velvetleaf 0: Velvetleaf plant response rating [14, 27]
7: Plant response rating, Crabgrass ([3]; Preemergence, Rate 125 g/ha) | Giant foxtail plant response rating [5, 23]
